# In patent US20260042762A1 (Kymera Therapeutics, Inc., priority 2018, published 2026):
# Target: T1, MerTK (Homo sapiens, UniProt Q12866)
# T1 construct: endogenous in cells; host or cells: Jurkat cells
# T1 sequence (Q12866 21-999): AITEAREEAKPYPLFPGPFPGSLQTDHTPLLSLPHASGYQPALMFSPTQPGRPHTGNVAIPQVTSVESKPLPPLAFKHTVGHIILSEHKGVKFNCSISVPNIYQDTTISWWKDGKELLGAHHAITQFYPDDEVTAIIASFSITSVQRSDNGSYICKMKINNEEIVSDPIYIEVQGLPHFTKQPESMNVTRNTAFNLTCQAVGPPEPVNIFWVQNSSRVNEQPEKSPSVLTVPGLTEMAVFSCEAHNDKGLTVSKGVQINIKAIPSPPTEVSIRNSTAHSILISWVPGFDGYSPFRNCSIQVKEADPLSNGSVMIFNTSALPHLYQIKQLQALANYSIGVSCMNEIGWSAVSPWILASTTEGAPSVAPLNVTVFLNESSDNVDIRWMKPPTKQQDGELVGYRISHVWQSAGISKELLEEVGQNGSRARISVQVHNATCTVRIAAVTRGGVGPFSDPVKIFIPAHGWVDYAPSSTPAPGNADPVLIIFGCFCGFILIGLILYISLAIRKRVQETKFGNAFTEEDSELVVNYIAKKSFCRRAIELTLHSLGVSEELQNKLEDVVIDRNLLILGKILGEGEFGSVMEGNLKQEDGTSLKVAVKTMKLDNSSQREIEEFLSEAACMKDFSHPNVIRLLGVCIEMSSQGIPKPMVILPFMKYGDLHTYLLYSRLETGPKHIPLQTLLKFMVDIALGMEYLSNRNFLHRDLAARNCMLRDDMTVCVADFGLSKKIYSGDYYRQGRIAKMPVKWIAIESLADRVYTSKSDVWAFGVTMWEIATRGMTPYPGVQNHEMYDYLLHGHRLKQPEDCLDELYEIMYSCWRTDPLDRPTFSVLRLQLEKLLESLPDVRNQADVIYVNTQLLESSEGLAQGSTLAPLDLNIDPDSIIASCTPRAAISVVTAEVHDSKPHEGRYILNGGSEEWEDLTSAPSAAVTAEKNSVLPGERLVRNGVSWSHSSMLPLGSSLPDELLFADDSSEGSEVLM
# Test: MerTk degradation in Jurkat cells (Western blot)
# Assay type: cell-based
# Settings: 0.001-1 μM, 4 hour-incubation at 37° C.
# Procedure, shortened: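 Jurkat cells treated 4 h at 37 °C with compound at 0.001-1 μM final. RIPA lysates quantified by BCA, then MerTK probed by Western blot against actin loading control with IR-dye secondaries and Odyssey imaging.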
row,Compound,Jurkat Max % MerTK Degradation
1,"Cn1c(=O)n(C2CCC(=O)NC2=O)c2ccc(CCCOCCN3CCCC(N4CCN(Cc5ccc(-c6cn([C@H]7CC[C@H](O)CC7)c7nc(NCCC(F)(F)F)ncc67)cc5)CC4)C3)cc21.O=CO (stereo partly drawn) [I-95, 3-(3-methyl-2-oxo-5-[3-[2-(3-[4-[(4-[7-[trans-4-hydroxycyclohexyl]-2-[(3,3,3-trifluoropropyl)amino]-7H-pyrrolo[2,3-d]pyrimidin-5-yl]phenyl)methyl]piperazin-1-yl]piperidin-1-yl)ethoxy]propyl]-2,3-dihydro-1H-1,3-benzodiazol-1-y1)piperidine-2,6-dione; formic acid]",A (maximum MerTK degradation greater than 50%)

# Same assay, conditions: Jurkat, 4 h, 0.001-1 μM, 4 hour-incubation at 37° C., read-out: Jurkat Max % MerTK Degradation
row,Compound,Dmax [%]
1,"Cn1c(=O)n([C@H]2CCC(=O)NC2=O)c2ccc(CCCOCCCCN3CCN(Cc4ccc(-c5cn(C6CCCCC6)c6nc(NCCC(F)(F)F)ncc56)cc4)CC3)cc21 [I-84, 3-[5-[3-(4-[4-[(4-[7-cyclohexy1-2-[(3,3,3-trifluoropropyl)amino]-7H-pyrrolo[2,3-d]pyrimidin-5-y1]phenyl)methyl]piperazin-1-yl]butoxy)propyl]-3-methyl-2-oxo-2,3-dihydro-1H-1,3-benzodiazol-1-yl]piperidine-2,6-dione]",> 50
2,"Cn1c(=O)n(C2CCC(=O)NC2=O)c2ccc(C#CCOCCN3CCC(N4CCN(Cc5ccc(-c6cn([C@H]7CC[C@H](O)CC7)c7nc(NCCC(F)(F)F)ncc67)cc5)CC4)C3)cc21 (stereo partly drawn) [I-85, 3-(3-methyl-2-oxo-5-[3-[2-(3-[4-[(4-[7-[trans-4-hydroxycyclohexyl]-2-[(3,3,3-trifluoropropyl)amino]-7H-pyrrolo[2,3-d]pyrimidin-5-yl]phenyl)methyl]piperazin-1-yl]pyrrolidin-1-yl)ethoxy]prop-1-yn-1-y1]-2,3-dihydro-1H-1,3-benzodiazol-1-y1)piperidine-2,6-dione; di(formic acid)]",> 50
3,"Cn1c(=O)n([C@H]2CCC(=O)NC2=O)c2ccc(C#CCOCCN3CCC(N4CCN(Cc5ccc(-c6cn([C@H]7CC[C@H](O)CC7)c7nc(NCCC(F)(F)F)ncc67)cc5)CC4)CC3)cc21 [I-86, 3-(3-methyl-2-oxo-5-[3-[2-(4-[4-[(4-[7-[trans-4-hydroxycyclohexy1]-2-[(3,3,3-trifluoropropyl)amino]-7H-pyrrolo[2,3-d]pyrimidin-5-yl]phenyl)methyl]piperazin-1-yl]piperidin-1-yl)ethoxy]prop-1-yn-1-yl]-2,3-dihydro-1H-1,3-benzodiazol-1-yl)piperidine-2,6-dione; formic acid]",> 50
4,"Cn1c(=O)n(C2CCC(=O)NC2=O)c2ccc(C#CCOCCN3CCCC(N4CCN(Cc5ccc(-c6cn([C@H]7CC[C@H](O)CC7)c7nc(NCCC(F)(F)F)ncc67)cc5)CC4)C3)cc21 (stereo partly drawn) [I-87, 3-(3-methyl-2-oxo-5-[3-[2-(3-[4-[(4-[7-[trans-4-hydroxycyclohexyl]-2-[(3,3,3-trifluoropropyl)amino]-7H-pyrrolo[2,3-d]pyrimidin-5-yl]phenyl)methyl]piperazin-1-yl]piperidin-1-yl)ethoxy]prop-1-yn-1-y1]-2,3-dihydro-1H-1,3-benzodiazol-1-y1)piperidine-2,6-dione; formic acid]",> 50
5,"CCCCNc1ncc2c(n1)n([C@H]1CC[C@H](O)CC1)cc2[C@H]1CC[C@H](CN2CCN(CCOCCOCCOCCOCCCc3ccc4c(c3)n(C)c(=O)n4[C@H]3CCC(=O)NC3=O)CC2)CC1 [I-90, 3-[3-methyl-2-oxo-5-[1-(4-[[(1r,4r)-4-[2-(butylamino)-7-[trans-4-hydroxycyclohexy1]-7H-pyrrolo[2,3-d]pyrimidin-5-yl]cyclohexyl]methyl]piperazin-1-yl)-3,6,9,12-tetraoxapentadecan-15-y1]-2,3-dihydro-1H-1,3-benzodiazol-1-yl]piperidine-2,6-dione]",> 50
6,"Cn1c(=O)n([C@H]2CCC(=O)NC2=O)c2ccc(CCCOCCN3CC(N4CCN(Cc5ccc(-c6cn([C@H]7CC[C@H](O)CC7)c7nc(NCCC(F)(F)F)ncc67)cc5)CC4)C3)cc21 [I-91, 3-(3-methyl-2-oxo-5-[3-[2-(3-[4-[(4-[7-[trans-4-hydroxycyclohexy1]-2-[(3,3,3-trifluoropropyl)amino]-7H-pyrrolo[2,3-d]pyrimidin-5-y1]phenyl)methyl]piperazin-1-yl]azetidin-1-yl)ethoxy]propyl]-2,3-dihydro-1H-1,3-benzodiazol-1-yl)piperidine-2,6-dione; formic acid]",> 50
7,"Cn1c(=O)n(C2CCC(=O)NC2=O)c2ccc(CCCOCCN3CCC(N4CCN(Cc5ccc(-c6cn([C@H]7CC[C@H](O)CC7)c7nc(NCCC(F)(F)F)ncc67)cc5)CC4)C3)cc21 (stereo partly drawn) [I-93, 3-(3-methyl-2-oxo-5-[3-[2-(3-[4-[(4-[7-[trans-4-hydroxycyclohexy1]-2-[(3,3,3-trifluoropropyl)amino]-7H-pyrrolo[2,3-d]pyrimidin-5-yl]phenyl)methyl]piperazin-1-yl]pyrrolidin-1-y1)ethoxy]propyl]-2,3-dihydro-1H-1,3-benzodiazol-1-yl)piperidine-2,6-dione; formic acid]",> 50
8,"Cn1c(=O)n([C@H]2CCC(=O)NC2=O)c2ccc(CCCOCCN3CCC(N4CCN(Cc5ccc(-c6cn([C@H]7CC[C@H](O)CC7)c7nc(NCCC(F)(F)F)ncc67)cc5)CC4)CC3)cc21 [I-94, 3-(3-methyl-2-oxo-5-[3-[2-(4-[4-[(4-[7-[trans-4-hydroxycyclohexyl]-2-[(3,3,3-trifluoropropyl)amino]-7H-pyrrolo[2,3-d]pyrimidin-5-yl]phenyl)methyl]piperazin-1-yl]piperidin-1-yl)ethoxy]propyl]-2,3-dihydro-1H-1,3-benzodiazol-1-y1)piperidine-2,6-dione; formic acid]",> 50
9,"CCCCNc1ncc2c(C3CCN(CCOCCOCCOCCOCCCc4ccc5c(c4)n(C)c(=O)n5[C@H]4CCC(=O)NC4=O)CC3)cn([C@H]3CC[C@H](O)CC3)c2n1 [I-97, 3-[5-(1-[4-[2-(butylamino)-7-[trans-4-hydroxycyclohexyl]-7H-pyrrolo[2,3-d]pyrimidin-5-y1]piperidin-1-y1]-3,6,9,12-tetraoxapentadecan-15-y1)-3-methyl-2-oxo-2,3-dihydro-1H-1,3-benzodiazol-1-y1]piperidine-2,6-dione; bis(formic acid)]",> 50

# Continued, values first:
row,Dmax [%],Compound
1,> 50,"Cn1c(=O)n([C@H]2CCC(=O)NC2=O)c2ccc(CCCOCCOCCN3CCN(Cc4ccc(-c5cn([C@H]6CC[C@H](O)CC6)c6nc(NCCCF)ncc56)cc4)CC3)cc21 [I-88, 3-(5-[3-[2-(2-[4-[(4-[2-[(3-fluoropropyl)amino]-7-[trans-4-hydroxycyclohexyl]-7H-pyrrolo[2,3-d]pyrimidin-5yl]phenyl)methyl]piperazin-1-yl]ethoxy)ethoxy]propyl]-3-methyl-2-oxo-2,3-dihydro-1H-1,3-benzodiazol-1-yl)piperidine-2,6-dione; formic acid]"
2,> 50,"CCCCNc1ncc2c(n1)n([C@H]1CC[C@H](O)CC1)cc2[C@H]1CC[C@@H](CN2CCN(CCOCCOCCOCCOCCCc3ccc4c(c3)n(C)c(=O)n4[C@H]3CCC(=O)NC3=O)CC2)CC1 [I-89, 3-[3-methyl-2-oxo-5-[1-(4-[[(1s,4s)-4-[2-(butylamino)-7-[trans-4-hydroxycyclohexy1]-7H-pyrrolo[2,3-d]pyrimidin-5-yl]cyclohexyl]methyl]piperazin-1-yl)-3,6,9,12-tetraoxapentadecan-15-yl]-2,3-dihydro-1H-1,3-benzodiazol-1-yl]piperidine-2,6-dione; di(formic acid)]"
3,> 50,"Cn1c(=O)n([C@H]2CCC(=O)NC2=O)c2ccc(C#CCOCCN3CC(N4CCN(Cc5ccc(-c6cn([C@H]7CC[C@H](O)CC7)c7nc(NCCC(F)(F)F)ncc67)cc5)CC4)C3)cc21 [I-92, 3-(3-methyl-2-oxo-5-[3-[2-(3-[4-[(4-[7-[trans-4-hydroxycyclohexy1]-2-[(3,3,3-trifluoropropyl)amino]-7H-pyrrolo[2,3-d]pyrimidin-5-yl]phenyl)methyl]piperazin-1-yl]azetidin-1-yl)ethoxy]prop-1-yn-1-y1]-2,3-dihydro-1H-1,3-benzodiazol-1-y1)piperidine-2,6-dione; formic acid]"
4,> 50,"CCCCNc1ncc2c(C3=CCN(CCOCCOCCOCCOCCCc4ccc5c(c4)n(C)c(=O)n5[C@H]4CCC(=O)NC4=O)CC3)cn([C@H]3CC[C@H](O)CC3)c2n1 [I-96, 3-[5-(1-[4-[2-(butylamino)-7-[trans-4-hydroxycyclohexyl]-7H-pyrrolo[2,3-d]pyrimidin-5-y1]-1,2,3,6-tetrahydropyridin-1-y1]-3,6,9,12-tetraoxapentadecan-15-yl)-3-methyl-2-oxo-2,3-dihydro-1H-1,3-benzodiazol-1-yl]piperidine-2,6-dione; formic acid]"
